Results reported in patent US8084500B2, “Method of using catalpic acid to treat dyslipidemia” (Nutrition Therapeutics, Inc., priority 2005, dated 2011).
Read-outs that look alike come from different tables or passages of the source. Marks after values point to notes of the source that are not given here.

What was measured:
[1] = system: obese mice fed high-fat diets; settings: CAT-supplemented high-fat diets
Procedure: Experiment 3 was conducted as described for Experiments 1 and 2 as indicated below except that determination of plasma lipid concentrations and quantitative real-time PCR were performed.
Serum HDL cholesterol concentrations were determined by using a commercial precipitation assay (Wako Diagnostics, Richmond, Va.) per the manufacturer's instructions.

[2] = system: db/db mice
Procedure: Mice were purchased from Harlan (Indianapolis, Ind.). Following an acclimation period of 5 days on regular rodent chow they were fed purified, high fat diets that represented a modification of the AIN-93G rodent diet in which the nutritional requirements, including those for polyunsaturated fatty acids (PUFA), were met or exceeded.
Stock fatty acid solutions, e.g., soybean oil or catalpic acid were kept at −20° C. and nitrogen-purged every time that the bottles were opened. All the experimental diets contained the same amount of energy (isocaloric) and protein (isonitrogenous). To maintain the diets isocalorically, catalpic acid replaced soybean oil in the catalpic acid diet. We utilized male, db/db [BKS.Cg-+Lepr^db/+Lepr^db/OlaHsd (type 2 Diabetic)] mice (n=20) weighing 19.86 g on day 1 of the study. The db/db mice lack the long isoform of leptin receptor and represent a well-established model of type 2 Diabetes and are often utilized to determine the pre-clinical efficacy of antidiabetic drugs. Half of the mice were fed a control and the other half a catalpic acid-supplemented diet (1 g catalpa oil/100 g diet).
(§1) Mice were weighed on a daily basis and examined for clinical signs of disease by blinded observers. Water and feed intake were assessed on a daily basis. Fasting (12 h) glucose and insulin concentrations were determined on days 0, 7, 15, 21 and 28, of the study. Briefly, blood was collected via the caudal vein and placed onto capillary blood collection tubes. Insulin concentrations were determined by using a commercially available insulin enzyme-linked immunosorbent assay (ELISA) (Linco Research, St Charles, Mo.) per manufacturer's instructions. Mice were administered a glucose tolerance test and euthanized by CO2 narcosis on day 28 of the study. For the glucose tolerance test, animals were fasted overnight (12 hours), injected intraperitoneally with D-glucose (2 g/kg body weight) and blood samples were collected via the caudal vein prior to the injection (time 0) and at 15, 30, 60, 90, 120 and 180 minutes following the injection to determine the effect of CAT on the kinetics of glucose normalization.

[3] = system: PPAR delta
Procedure: On day 28 or 78 of Experiments 1 and 2, visceral white adipose tissue (WAT) or pancreas samples were collected, stored in RNA later and frozen at −80° C. The dissection of intra-abdominal WAT was performed under magnification. RNA was isolated from WAT and pancreas specimens utilizing RNA isolation columns (Qiagen, Valencia, Calif.) per the manufacturer's instructions. RNA from the WAT was isolated using the Lipid Minikit (Qiagen). RNA was quantified using a μQuant microplate reader (Bio-TEK® Instruments, Inc., Winooski, Vt.). Briefly, total RNA (1 μg) from each sample was used to generate complementary DNA (cDNA) template using the iScript cDNA Synthesis Kit (Bio-Rad, Hercules, Calif.). The total reaction volume was 20 μl. […]
The PCR primer pairs were designed based on previously published sequences (GenBank) using the Oligo 6 primer design software (Molecular Biology Insights, Cascade, Colo.). […] The purified amplicon for each gene was quantified on an agarose gel using a DNA mass ladder. […]
Messenger RNA (mRNA) expression of peroxisome proliferator-activated receptor (PPAR) gamma, PPAR alpha, and PPAR delta was determined in adipose tissue. Based on the patterns of expression of the nuclear receptors in each tissue, the expression of a relevant panel of responsive genes was evaluated by quantitative real-time PCR. […]

[4] = system: C57BL6 mice
Procedure: A glucose tolerance test was conducted on day 78 of the experiment. Animals were fasted overnight (14 hours). Mice were injected intraperitoneally with D-glucose (1 g/kg body weight) and blood samples were collected via the tail vein prior to the injection (time 0) and at 15, 30 and 60 minutes following the injection.

[5] = system: db/db mice; settings: 0-180 min after glucose injection, all time points, FIG. 2B
Procedure: as §1

[6] = system: C57BL6 mice; settings: for White adipose tissue, g (abdominal) / Brown adipose tissue, g (interscapular) / Glucose (mg/dL), plasma fasting / Insulin (ng/mL), plasma fasting: C57BL6 mice, day 78; for White adipose tissue, g (abdominal): least squares mean
Text: In Western countries the Metabolic Syndrome or Syndrome X (i.e., diabetes, obesity, cardiovascular disease, hypertension and hyperlipidemia) is on a steady rise. […] A total of forty-seven C57BL6 mice were used in experiment 1. Twenty-five mice were fed a control diet and […] mice were fed a diet supplemented with catalpic acid (0.6 g catalpic acid/100 g food). For the first 32 days of the experiment all diets contained 7% fat, 0.02% total cholesterol, and they obtained 14.5% of calories from fat by replacing catalpic acid with linoleic acid (wt/wt basis) in the control diet.
These diets are defined as regular diets and were formulated to be isocaloric between treatment groups. On day 32 of the experiment, twenty mice within each group were fed high fat diets containing 19.6% fat, 0.2% total cholesterol that obtained 40.1% of calories from fat by replacing catalpic acid with lard (wt/wt basis) in the control high fat diet.
The high fat diets were also formulated to be isocaloric between treatment groups. The remaining mice within each group (n=5) were fed the regular diets. On day 78 of the experiment, mice were killed, and blood was collected and immediately analyzed for fasting glucose concentrations by using the Accu-Check Instant Plus System (Roche Diagnostics Corporation, Indianapolis, Ind.) or stored for subsequent analysis of insulin and lipid concentrations in plasma. Abdominal white adipose tissue and interscapular brown adipose tissue were collected, weighed and stored at −80° C. for RNA analyses. Liver, lungs, kidneys, pancreas and heart were examined for macroscopic abnormalities (gross lesions), fixed in phosphate-buffered formalin (10%) and processed for histological evaluation. All specimens were generally labeled with the following information: 1) mouse number; 2) date collected; 3) experiment number; 4) type of solvent; and 5) tissue type.
Serum insulin concentrations were determined by using commercially available enzyme-linked immunosorbent assay kits (Linco Research, St. Charles, Mo.).

[7] = system: stearoyl-coenzyme A desaturase (SCD1); settings: n = 10
Procedure: (§2) On day 28 or 78 of Experiments 1 and 2, visceral white adipose tissue (WAT) or pancreas samples were collected, stored in RNA later and frozen at −80° C. The dissection of intra-abdominal WAT was performed under magnification. RNA was isolated from WAT and pancreas specimens utilizing RNA isolation columns (Qiagen, Valencia, Calif.) per the manufacturer's instructions. RNA from the WAT was isolated using the Lipid Minikit (Qiagen). RNA was quantified using a μQuant microplate reader (Bio-TEK® Instruments, Inc., Winooski, Vt.). Briefly, total RNA (1 μg) from each sample was used to generate complementary DNA (cDNA) template using the iScript cDNA Synthesis Kit (Bio-Rad, Hercules, Calif.). The total reaction volume was 20 μl. The reaction was incubated as follows in a Tetrad Thermocycler (MJResearch, Waltham, Mass.): 5 minutes at 25° C., 30 minutes at 42° C., 5 minutes at 85° C., hold at 4° C. cDNA products were diluted 1:10 in diethylpyrocarbonate-treated water. Controls were also performed with no RNA template (no template) and omitting the reverse transcriptase enzyme (no RT).
(§3) The PCR primer pairs were designed based on previously published sequences (GenBank) using the Oligo 6 primer design software (Molecular Biology Insights, Cascade, Colo.). The PCR primer pair sequences, annealing temperatures, accession numbers and PCR product lengths are outlined in Table 5. […] Each gene amplicon was purified by using the MiniElute PCR Purification kit (Qiagen). The purified amplicon for each gene was quantified on an agarose gel using a DNA mass ladder. These purified amplicons were further used to optimize the real-time PCR conditions and to generate the standard curves in the real-time PCR assay. Primer concentrations and annealing temperatures were optimized for the iCycler iQ System (Bio-Rad) for each set of primers using the system's gradient protocol.
(§4) Messenger RNA (mRNA) expression of peroxisome proliferator-activated receptor (PPAR) gamma, PPAR alpha, and PPAR delta was determined in adipose tissue. […] Therefore, we also examined the expression of four PPAR alpha-responsive genes in WAT, including acyl-coenzyme A dehydrogenase (ACDH), stearoyl-coenzyme A desaturase (SCD1), enoyl-coenzyme A hydratase (ECH) and carnitine palmitoyl transferase-1 (Cpt-1).
(§5) Transcript expression was examined by real-time, quantitative PCR by using an iCycler iQ System and the iQ SYBR Green Supermix (Bio-Rad). Real-time PCR was used to measure the starting amount of nucleic acid by assaying each unknown starting quantity of cDNA on a 96-well plate. For each gene, the results were calculated as starting quantity of cDNA (picograms) per microgram of RNA.

[8] = system: enoyl-coenzyme A hydratase (ECH); settings: n = 10
Procedure: as §2, §3, §4, §5

[9] = system: PPAR alpha; settings: for PPAR alpha mRNA expression in white adipose tissue: n = 10
Procedure: as §2, §3, §4, §5

[10] = system: PPAR gamma; settings: C57BL/6J wild-type mice, 78 days, n = 10
Procedure: as §2, §3, §4, §5

[11] = high fat diets, CAT-supplemented
[12] = regular diets, CAT-supplemented
[13] = C57BL/6J wild-type mice, 78 days

feed intake versus control ([2]; high fat diet, FIG. 4B): No differences | fatty liver or enlarged viscera ([6]; mice fed catalpic acid-supplemented diets, Experiment 1): not observed
Structure (SMILES): CCCC\C=C/C=C/C=C/CCCCCCCC(=O)O [CAT, catalpic acid]
plasma triglyceride concentrations versus control high-fat diet ([1]; mice, FIG. 6B): lower | HDL cholesterol concentrations versus control high-fat diet ([1]; obese mice, FIG. 6A): greater | difference in WAT weight between groups attributable to catalpic acid ([2]; day 28): over 10% | abdominal WAT weight versus control ([2]; day 28, FIG. 5): significantly lower | body weight versus control ([2]; high fat diet, FIG. 4A): No differences | glucose concentrations ([2]; high fat diet, day 28 (control 425 mg/dl)): 290 mg/dL | fasting plasma insulin concentrations ([2]; high fat diet, days 0-28, remained at basal levels, FIG. 3): lower than 4 ng/ml | fasting plasma glucose versus high fat control diet ([2]; high fat diet, days 14, 21 and 28, P<0.05, FIG. 2A): lower | PPAR delta mRNA expression in white adipose tissue ([3]; C57BL/6J wild-type mice, 78 days, n = 10): 0.007 picograms of starting cDNA per microgram of white adipose tissue total RNA | PPAR delta expression in the pancreas ([3]; pancreas of CAT-fed mice, P<0.04): 0.069 | glucose tolerance versus control ([4]; mice fed high fat diets, FIG. 1B): normalizes impaired glucose tolerance | glucose tolerance versus control ([4]; mice fed regular diets, FIG. 1A): not different | glucose normalizing ability versus control [5]: greater | White adipose tissue, g (abdominal) ([6]; high fat diets from day 32, CAT-supplemented): 0.607^b g | Brown adipose tissue, g (interscapular) [6, 11]: 0.105 g | Glucose (mg/dL), plasma fasting [6, 11]: 205.43^b mg/dL | Insulin (ng/mL), plasma fasting [6, 11]: 0.730^b ng/mL | Brown adipose tissue, g (interscapular) [6, 12]: 0.169 g | Glucose (mg/dL), plasma fasting [6, 12]: 146.20^b mg/dL | Insulin (ng/mL), plasma fasting [6, 12]: 0.960^b ng/mL | White adipose tissue, g (abdominal) [6, 12]: 0.751^b g | Stearoyl CoA Desaturase mRNA expression in white adipose tissue [7, 13]: 0.130^a picograms of starting cDNA per microgram of white adipose tissue total RNA | Stearoyl CoA Desaturase mRNA expression in white adipose tissue ([7]; db/db mice, 28 days): 0.095^a picograms of starting cDNA per microgram of white adipose tissue total RNA | Enoyl CoA Hydratase mRNA expression in white adipose tissue [8, 13]: 0.0039^a picograms of starting cDNA per microgram of white adipose tissue total RNA | Enoyl CoA Hydratase mRNA expression in white adipose tissue ([8]; db/db mice, 28 days): 0.0024 picograms of starting cDNA per microgram of white adipose tissue total RNA | PPAR alpha mRNA expression in white adipose tissue [9, 13]: 0.005^a picograms of starting cDNA per microgram of white adipose tissue total RNA | PPAR alpha mRNA expression in white adipose tissue ([9]; db/db mice, 28 days): 0.0052^a picograms of starting cDNA per microgram of white adipose tissue total RNA | pancreatic concentrations of PPAR alpha and its responsive genes ([9]; pancreas of CAT-fed mice): unchanged | PPAR gamma mRNA expression in white adipose tissue [10]: 0.074 picograms of starting cDNA per microgram of white adipose tissue total RNA
